Here are results for three molecules from US7928231B2, “Thienopyrazoles” (priority 2003, dated 2011).

Data set [1] addresses T1, ITK (Homo sapiens, UniProt Q08881).
T1 construct: made in house
T1 sequence (Q08881 1-620): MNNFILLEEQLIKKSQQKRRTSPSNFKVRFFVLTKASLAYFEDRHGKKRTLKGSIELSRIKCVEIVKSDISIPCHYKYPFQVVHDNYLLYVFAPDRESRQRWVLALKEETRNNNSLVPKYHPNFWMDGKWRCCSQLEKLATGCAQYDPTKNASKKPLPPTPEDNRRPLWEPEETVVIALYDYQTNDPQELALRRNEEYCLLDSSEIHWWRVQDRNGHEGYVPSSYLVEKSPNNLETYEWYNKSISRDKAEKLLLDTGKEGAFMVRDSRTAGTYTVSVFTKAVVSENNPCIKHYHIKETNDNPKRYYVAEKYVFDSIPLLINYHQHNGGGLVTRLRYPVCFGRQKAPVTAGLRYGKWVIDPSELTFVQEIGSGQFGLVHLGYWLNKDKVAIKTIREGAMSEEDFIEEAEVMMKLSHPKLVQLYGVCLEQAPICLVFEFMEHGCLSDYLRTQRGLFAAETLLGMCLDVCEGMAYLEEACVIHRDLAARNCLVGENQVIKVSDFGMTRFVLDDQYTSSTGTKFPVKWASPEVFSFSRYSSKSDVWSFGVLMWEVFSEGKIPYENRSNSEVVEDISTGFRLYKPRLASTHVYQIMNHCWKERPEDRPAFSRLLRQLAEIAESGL
Nature of the data set: FlashPlate ITK protocol for ITK inhibition determination (ITK autophosphorylation, [γ-33P]ATP). The note with it: MBP-tagged ITK, read-out: IC50 (enzyme inhibition)-. It is filed as biochemical. On the procedure:
ITK kinase is produced with an N-terminal Maltose Binding Protein tag (MW=˜114 kDa) using a Baculovirus expression system. The transfer of radioactive [γ-^33P] phosphate from [γ-^33P]ATP to ITK during the autophosphorylation of ITK is measured by scintillation counting. Streptavidin-coated FlashPlate Plus™ 384 well microplates (PerkinElmer Life Sciences) are designed for in-plate radiometric assays. The interior of each well is permanently coated with a thin layer of scintillant and a covalently bound layer of Streptavidin. ITK is incubated with [γ-^33P]ATP, biotinylated anti-MBP antibody (Cell Signaling Technology™) and test compounds in a 384-well Streptavidin-coated FlashPlate. The biotinylated anti-MBP binds tightly to the MBP-tagged ITK and cross-links it to Streptavidin on the plate surface. Unreacted ^33P-ATP is washed away and ^33P-phosphorylated ITK is measured when the [γ-^33P] incorporated into ITK stimulates the scintillant on the well to emit light. Radioactivity is assessed in a Packard
TopCount scintillation counter. Reagents are pipetted and dispensed using Beckman Biomek robotic equipment. Test compounds (2 μl per well) are pre-diluted from 1 mM 100% dimethyl sulfoxide solutions into water containing 30% dimethyl sulfoxide to produce dose response curves (10 point curves from (final) 30 μM to ˜1 nM); all tests are performed in duplicate. Background binding is assessed by substituting the enzyme inhibitor EDTA (25 mM final concentration) for test compound and maximal binding is assessed by inclusion of assay buffer instead of compound. Test compounds are added to the wells first (2 μl) followed by 10 μl enzyme solution in assay buffer. After 30 minutes pre-incubation, all other reagents are added in a 10 μl volume. The final reagent concentrations/well are as follows: 20 nM enzyme, 0.25 μCi [γ-^33P]ATP, assay buffer: 20 mM HEPES (pH 7.5), 0.15 M NaCl, 3 mM MgCl2, 3 mM MnCl2, 0.01% Triton X-100, 1 mM DTT, 5% glycerol and 0.01% γ-globulin. The plate is incubated at room temperature (RT) for 60 minutes for the kinase reaction. The reaction is stopped with 20 μl of 50 mM EDTA and the biotinylated anti-MBP is allowed to bind to the ITK and the Streptavidin for a further 60 minutes at RT. The unbound reagents are washed away with 2×100 μl phosphate-buffered saline (PBS). Radioactivity is measured for 45 sec/well.

For the molecule `OC1CCN(CCCOc2ccc3cc(-c4n[nH]c5cc(-c6ccccc6)sc45)[nH]c3c2)CC1`, the melting point (commonly the temperature of the solid-liquid transition) lay in the range of 239 to 242 °C.

Take `COc1cccc(-c2cc3[nH]nc(-c4cc5ccc(OCCCN6CCC(O)CC6)cc5[nH]4)c3s2)c1`: the melting point lay in the range of 205 to 207 °C.

On to `COc1ccc2[nH]c(-c3n[nH]c4ccsc34)cc2n1` [Example 60, 5-Methoxy-2-(1H-thieno[3,2-c]pyrazol-3-yl)-1H-pyrrolo[3,2-b]pyridine], for which the melting point was 234 to 236 °C. In addition, in data set [1], the IC50 (commonly the concentration that gives 50% inhibition) worked out at 224 nM.
